Test results taken from BindingDB's records for patent US11773085 (Foghorn Therapeutics, 2023).

Molecular target: T1, Bromodomain-containing protein 9 [133-239] (Homo sapiens, UniProt Q9H8M2)
T1 construct: 133-239
T1 sequence (Q9H8M2 whole entry): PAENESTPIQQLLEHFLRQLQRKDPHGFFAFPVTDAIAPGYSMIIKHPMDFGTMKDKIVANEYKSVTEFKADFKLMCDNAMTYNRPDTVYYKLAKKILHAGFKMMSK
Assay: BRD9 Bromodomain TR-FRET Competition Binding Assay
Protocol: A mixture of biotinylated-ligand and SureLight Allophycocyanin-Streptavidin (APC-SA, PerkinElmer AD0201) in 50 mM HEPES (pH 7.4), 50 mM NaCl, 1 mM TCEP (pH 7), 0.01% (v/v) Tween-20, 0.01% (w/v) bovine serum albumin was added to a white 384-well PerkinElmer Proxiplate Plus plate. DMSO or 3-fold serially diluted compounds were then added to the Proxiplate followed by addition of Flag-BRD9. After a 10 minute incubation at room temperature, Eu-W1024 anti-FLAG (PerkinElmer, AD0273) was added.

IC50 [nM] | SMILES
< 10 | CCS(=O)(=O)N(C)Cc1c(OC)cc(-c2cn(C)c(=O)c3cnccc23)cc1OC [US11773085, Compound B35]
< 10 | COc1cc(-c2cn(C)c(=O)c3cnccc23)cc(OC)c1CN(C)C(=O)CCCCCOc1cccc2c1C(=O)N(C1CCC(=O)NC1=O)C2=O (configuration not stated) [US11773085, Compound D4]
